ChEMBL document CHEMBL1201862, “PubChem BioAssay data set” (2004)
Calls of active or inactive are those of the source.

Assays:
[1] = biological target: T1, Heat shock factor protein 1 (Mus musculus, UniProt P38532); assay: decrease of HSF1-responsive luciferase luminescence – cell-based, NIH3T3, dose retest, confirmation (AID 2382); assay type: functional;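 further: NIH3T3 fibroblasts with HSF1-driven luciferase reporter stressed by proteasome inhibitor MG132; luminescence from HSF1-driven luciferase expression after 8 hours of MG132 stress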
T1 sequence (P38532 whole entry): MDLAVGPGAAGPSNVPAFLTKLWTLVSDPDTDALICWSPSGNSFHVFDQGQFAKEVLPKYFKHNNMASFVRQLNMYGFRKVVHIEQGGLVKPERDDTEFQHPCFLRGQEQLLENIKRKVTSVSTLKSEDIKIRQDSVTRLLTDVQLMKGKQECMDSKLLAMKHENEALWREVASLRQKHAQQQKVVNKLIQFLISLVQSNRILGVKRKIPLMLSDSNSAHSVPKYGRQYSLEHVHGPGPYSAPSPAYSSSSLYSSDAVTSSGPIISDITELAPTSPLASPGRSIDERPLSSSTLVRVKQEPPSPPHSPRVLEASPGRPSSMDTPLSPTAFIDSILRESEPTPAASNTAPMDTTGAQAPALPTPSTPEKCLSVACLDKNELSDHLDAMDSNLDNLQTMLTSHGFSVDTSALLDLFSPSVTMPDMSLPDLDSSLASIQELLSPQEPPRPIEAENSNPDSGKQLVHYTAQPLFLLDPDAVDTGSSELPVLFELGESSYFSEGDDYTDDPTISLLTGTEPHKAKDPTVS

[2] = HEK-293T cell viability reduction – luminescence, B-cell screen hits, cytotoxicity control for BCR NF-kB inhibitor project, dose response (AID 489021); assay type: functional, cell-based;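 further: HEK-293T cells carrying an NF-kB luciferase reporter; cells exposed to compound for about 14 hours before viability readout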
[3] = test system: HEK293; assay: HEK293T cell viability loss, resazurin readout – resazurin fluorescence, cytotoxicity control for NF-kB activator project, SAR follow-up (AID 493251); assay type: functional, cell-based; conditions: Homo sapiens
[4] = test system: Jurkat; assay: SAR Analysis of small molecule inhibitors of T-cell specific antigen receptor-induced NF-kB activation in a Jurkat cell line using a luminescence assay - Set 2. [Related pubchem assays (depositor defined):AID435003, AID435012, AID465]; assay type: functional, cell-based; conditions: Homo sapiens
[5] = test system: HEK293; assay: SAR Analysis of small molecule inhibitors of T-cell specific antigen receptor-induced NF-kB activation in a HEK-293T cell line using a luminescence assay - Set 2. [Related pubchem assays (depositor defined):AID435003, AID435012, AID489026]; assay type: functional, cell-based; conditions: Homo sapiens
[6] = biological target: T2, Protein Wnt-3a (Mus musculus, UniProt P27467); assay: SAR analysis of small molecule antagonists of Gli-SUFU in a Wnt3a luminescent reporter assay.; assay type: functional
T2 sequence (P27467 whole entry): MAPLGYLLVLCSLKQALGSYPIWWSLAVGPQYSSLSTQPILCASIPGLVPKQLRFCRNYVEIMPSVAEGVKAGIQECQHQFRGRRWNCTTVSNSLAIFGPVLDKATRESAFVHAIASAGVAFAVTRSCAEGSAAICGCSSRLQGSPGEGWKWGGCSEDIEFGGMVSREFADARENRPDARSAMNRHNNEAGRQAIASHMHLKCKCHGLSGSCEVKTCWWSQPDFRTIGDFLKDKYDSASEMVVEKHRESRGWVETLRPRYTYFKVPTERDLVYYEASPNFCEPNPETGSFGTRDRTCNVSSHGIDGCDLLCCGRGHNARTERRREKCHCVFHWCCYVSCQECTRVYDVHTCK

[7] = biological target: DNA topoisomerase (Yersinia pestis, UniProt A0A2S9PM60); assay: Yersinia topoisomerase I cleavage product accumulation – biochemical, cherry-pick, dose response (AID 588525)
Sequence of DNA topoisomerase (A0A2S9PM60 whole entry): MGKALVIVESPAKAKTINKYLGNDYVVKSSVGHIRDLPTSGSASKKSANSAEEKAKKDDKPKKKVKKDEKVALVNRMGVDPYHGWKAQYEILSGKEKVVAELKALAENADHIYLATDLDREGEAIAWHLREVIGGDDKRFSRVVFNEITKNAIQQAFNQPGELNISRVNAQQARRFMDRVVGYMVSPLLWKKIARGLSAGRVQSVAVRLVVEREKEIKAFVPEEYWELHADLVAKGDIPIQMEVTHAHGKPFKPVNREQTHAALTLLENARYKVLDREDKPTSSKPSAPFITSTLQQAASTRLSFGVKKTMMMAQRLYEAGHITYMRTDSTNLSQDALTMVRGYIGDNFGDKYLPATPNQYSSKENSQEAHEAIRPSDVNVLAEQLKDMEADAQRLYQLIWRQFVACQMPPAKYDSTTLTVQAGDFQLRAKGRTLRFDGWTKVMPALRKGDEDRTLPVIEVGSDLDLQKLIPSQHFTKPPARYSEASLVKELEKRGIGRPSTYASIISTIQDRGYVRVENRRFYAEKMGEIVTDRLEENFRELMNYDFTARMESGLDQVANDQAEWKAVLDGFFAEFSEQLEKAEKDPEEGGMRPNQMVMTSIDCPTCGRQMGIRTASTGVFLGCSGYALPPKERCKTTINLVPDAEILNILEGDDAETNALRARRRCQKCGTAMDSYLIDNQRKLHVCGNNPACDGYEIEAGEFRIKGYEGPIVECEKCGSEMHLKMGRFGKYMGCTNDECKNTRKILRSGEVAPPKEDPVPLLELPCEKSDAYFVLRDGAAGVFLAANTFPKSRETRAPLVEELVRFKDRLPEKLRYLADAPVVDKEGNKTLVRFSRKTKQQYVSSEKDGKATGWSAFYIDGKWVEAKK

[8] = test system: Candida albicans; assay: fluconazole-resistant Candida strain growth inhibitors – CaCi-8 strain, dry powder, set 4, dose response (AID 488950); assay type: functional, organism-based
[9] = test system: Candida albicans; assay: Candida growth reduction in fluconazole presence – CaCi-2 strain, Alamar Blue, dry powder, set 2, antifungal resistance reversal project, dose response (AID 488930); assay type: functional, organism-based
[10] = test system: HEK293; assay: EBV LMP1 TES2 canonical NF-kB signalling blockers – cell-based, HEK293, luciferase, cherry-pick, dose response (AID 588343); assay type: functional; conditions: Homo sapiens
[11] = test system: Candida albicans; assay: C. albicans growth inhibition with fluconazole – CaCi-2 strain, Alamar Blue, dry powder, set 4, dose response (AID 488943); assay type: functional, organism-based
[12] = test system: Candida albicans; assay: resistant Candida growth with fluconazole co-treatment – CaCi-8 strain, Alamar Blue, dry powder, set 2, dose response (AID 488909); assay type: functional, organism-based
[13] = test system: Candida albicans; assay: single-agent toxicity toward C. albicans – CaCi-2 strain, no fluconazole, dry powder, set 4, counter-screen for reversing antifungal drug resistance, dose response (AID 488932); assay type: functional, organism-based
[14] = biological target: T2, Protein Wnt-3a; assay: antagonism of Wnt3a pathway luciferase reporter – Wnt-LIGHT cells, luminescence, selectivity assay for Gli-SUFU antagonist project, dose response (AID 651570); assay type: functional; conditions: read-out: IC50_Mean;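 further: Wnt-LIGHT reporter cells stimulated with conditioned medium from Wnt3a-producing cells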
[15] = biological target: Nonstructural protein 1 (Influenza A virus, UniProt Q194T2); assay type: functional, Influenza A virus (A/California/07/2009(H1N1))
Sequence of Nonstructural protein 1 (Q194T2 whole entry): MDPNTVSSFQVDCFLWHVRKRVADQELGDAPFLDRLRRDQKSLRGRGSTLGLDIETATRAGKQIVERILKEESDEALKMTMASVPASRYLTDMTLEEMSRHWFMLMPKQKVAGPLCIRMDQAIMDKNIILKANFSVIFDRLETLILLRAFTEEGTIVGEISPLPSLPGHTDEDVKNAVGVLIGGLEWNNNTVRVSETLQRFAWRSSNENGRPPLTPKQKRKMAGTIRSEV

[16] = biological target: Latent membrane protein 1 (Human herpesvirus 4 (strain B95-8), UniProt P03230); assay: LMP1 TES1 pathway selectivity over dsRED control – imaging, HEK293T, dual-color eGFP/dsRED, cherry-picks, selectivity assay for LMP1 NF-kB inhibitor project, dose response (AID 588398); assay type: functional, cell-based
Sequence of Latent membrane protein 1 (P03230 whole entry): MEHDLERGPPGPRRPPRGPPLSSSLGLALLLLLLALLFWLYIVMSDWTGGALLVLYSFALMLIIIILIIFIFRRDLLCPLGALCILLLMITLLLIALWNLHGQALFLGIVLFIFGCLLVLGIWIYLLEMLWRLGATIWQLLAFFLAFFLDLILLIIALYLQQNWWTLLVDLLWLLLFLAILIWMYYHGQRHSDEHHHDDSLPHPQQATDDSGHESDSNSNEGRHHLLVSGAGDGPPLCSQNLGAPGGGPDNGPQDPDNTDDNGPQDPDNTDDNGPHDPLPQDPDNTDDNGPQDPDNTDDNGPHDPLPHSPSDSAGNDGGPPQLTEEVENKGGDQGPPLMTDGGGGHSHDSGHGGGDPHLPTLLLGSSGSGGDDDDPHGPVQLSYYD

## CCOc1ccc(-c2nc(CSCC(=O)NC3CC3)c(C)o2)cc1
[1]
  EC50: 0.241 µM (active)
[2]
  IC50: > 80 µM (inactive)
[3]
  IC50: > 80 µM (inactive)
[4]
  IC50: > 79 µM (inactive)
[5]
  IC50: > 80 µM (inactive)
[6]
  IC50: > 21.8 µM (inactive)

## Cc1cc(C(=O)Cn2nc(C(=O)O)c3ccccc3c2=O)c(C)n1-c1ccc(OC(F)F)cc1
[7]
  AC50: 4.1 µM (active)

## O=C(C1CCCCC1)N1CCN(c2ccnc3cc(Cl)ccc23)CC1
[8]
  AC50: 1.01 µM (active)
[9]
  AC50: 0.661 µM (active)
[10]
  AC50: 12.5 µM (active)
[11]
  AC50: 0.688 µM (active)
[12]
  AC50: 5.02 µM (active)
[13]
  AC50: 200 µM (active)
[14]
  IC50: 10.4 µM (active)

## CC(=NNC(=S)Nc1ccc(C)cc1)c1ccccn1
[15]
  IC50: 16.6 µM (active)
[10]
  AC50: 0.149 µM (active)
[16]
  AC50: 0.793 µM (active)
